Assay results taken from patent US20090062122A1, “Cotton Growth Regulator” (FMC Corporation, priority 2006, published 2009).

Columns and labels:
[1] = tested on: cotton, variety D&PL 555; test: % defoliation of cotton plants, field trial; assay type: in vivo; details: 20% open boll application, 1 replicate
Procedure: (§1) The trial was performed on cotton, variety D&PL 555. The formulated test compounds were diluted to the appropriate concentrations with water to which a crop oil concentrate (1% to 2% v/v) or a non-ionic surfactant (0.25% v/v) was added. The application of the test composition as a cotton plant growth regulator was performed using pressurized, over-the-top spray equipment consisting of a research scale boom sprayer. Deposit of the test composition was primarily to the top of the cotton plants, minimizing spray deposition to lower branches, leaves and fruit. The finished spray volume was 10 gallons per acre, with sprayer nozzle design, orientation and nozzle pressures chosen to prevent spray drift. Applications were made at first sign of cotton boll opening and at 15%, 20% and 40% open bolls.
(§2) The experimental design used randomized plots with 1 to 4 treatment rates of test composition and from 1 to 10 replications depending on the test (sees tables below). The size of each experimental plot was about 15 m^2. Testing was performed in Texas, North Carolina, Mississippi and Georgia.
(§3) Percent desiccation, percent defoliation, percent terminal control and percent open bolls were evaluated at 7 and 14 days after application (DAA) of the test composition. Inspection of cotton plants for insect control of armyworm larvae was performed at 2 DAA and insect damage to bolls was performed at the time of harvest
Defoliation refers to removal of leaves. Percent defoliation rating approximates the proportion of leaves of all sizes shed per 100 leaves present prior to application of the cotton growth regulator compound. An evaluation of the foliage in the untreated check plots was first undertaken. Then the test plots were individually evaluated. The percent of leaves dropped by the plants in the treated plot was determined using observations within the plot and comparisons to foliage in the untreated plot.
(§4) The results, shown as the mean of the indicated number of replications, were compared with results observed in the same trials with an untreated control.

[2] = tested on: cotton, variety D&PL 555; test: % desiccation of cotton leaves, field trial; assay type: in vivo
Procedure: as §1, §2, §3
Desiccation refers to leaves or portions of leaves dried to debris following tissue death. […] An evaluation of the condition of leaves in the untreated check plots were observed. Then the test plots were individually evaluated. The percent of all leaves completely or partially desiccated by the test application were recorded, based upon live leaves and leaf debris within the test plot relative to foliage present in the untreated plot.
as §4

CC1=C(C)S(=O)(=O)CCS1(=O)=O [dimethipin, 2,3-dihydro-5,6-dimethyl-1,4-dithiin-1,1,4,4-tetraoxide] was tested, and the “% Defoliation” value ([1]; 0.23 lb ai/a, 7 DAA) was 28% and the “% Desiccation” value ([2]; 20% open boll application, 0.23 lb ai/a, 7 DAA, 1 replicate) was 40%.
With CCCCCOC(=O)COc1cc(N2C(=O)C3=C(CCCC3)C2=O)c(F)cc1Cl [flumiclorac-pentyl ester, pentyl [2-chloro-4-fluoro-5-(1,3,4,5,6,7-hexahydro-1,3-dioxo-2H-isoindol-2-yl)phenoxy]acetate] the “% Desiccation” value ([2]; first open boll application, 0.027 lb ai/a, 7 DAA, 3 replicates) was 16%, the “% Desiccation” value ([2]; first open boll application, 0.027 lb ai/a, 14 DAA, 3 replicates) was 13% and the “% Desiccation” value ([2]; first open boll application, 0.04 lb ai/a, 7 DAA, 3 replicates) was 19%. The “% Desiccation” value ([2]; first open boll application, 0.04 lb ai/a, 14 DAA, 3 replicates) was 12%.
For COC(=O)CSc1cc(/N=c2\sc(=O)n3n2CCCC3)c(F)cc1Cl [fluthiacet-methyl, methyl [[2-chloro-4-fluoro-5-[(tetrahydro-3-oxo-1H,3H-[1,3,4]thiadiazolo[3,4-a]pyridazin-1-ylidine)amino]phenyl]thio]acetate], the “% Desiccation” value ([2]; first open boll application, 0.0018 lb ai/a, 7 DAA, 1 replicate) was 25% and the “% Desiccation” value ([2]; first open boll application, 0.0018 lb ai/a, 14 DAA, 1 replicate) was 17%.
For CC(C)N.O=C(O)CNCP(=O)(O)O [glyphosate, N-(phosphonomethyl)glycine isopropylamine salt], the “% Defoliation” value ([1]; 0.5 lb ai/a, 14 DAA) was 7% and the “% Desiccation” value ([2]; 20% open boll application, 0.5 lb ai/a, 14 DAA, 1 replicate) was 67%.
For C[n+]1ccc(-c2cc[n+](C)cc2)cc1.[Cl-].[Cl-] [paraquat, 1,1′-dimethyl-4,4′-bipyridinium dichloride], the “% Defoliation” value ([1]; 0.13 lb ai/a, 14 DAA) was 8% and the “% Desiccation” value ([2]; 20% open boll application, 0.13 lb ai/a, 14 DAA, 1 replicate) was 90%.
For CCOC(=O)COc1cc(-c2nn(C)c(OC(F)F)c2Cl)c(F)cc1Cl [pyraflufen-ethyl, ethyl 2-chloro-5-[4-chloro-5-(difluoromethoxy)-1-methyl-1H-pyrazol-3-yl]-4-fluorophenoxyacetate], the “% Desiccation” value ([2]; first open boll application, 0.0008 lb ai/a, 7 DAA, 3 replicates) was 13%, the “% Desiccation” value ([2]; first open boll application, 0.0008 lb ai/a, 14 DAA, 3 replicates) was 11% and the “% Desiccation” value ([2]; first open boll application, 0.0016 lb ai/a, 7 DAA, 3 replicates) was 19%. For the same compound, the “% Desiccation” value ([2]; first open boll application, 0.0016 lb ai/a, 14 DAA, 3 replicates) was 13%.
In the case of CCCCSP(=O)(SCCCC)SCCCC [tribufos, S,S,S-tributyl phosphorotrithioate], the “% Defoliation” value ([1]; 0.14 lb ai/a, 7 DAA) was 30% and the “% Desiccation” value ([2]; 20% open boll application, 0.14 lb ai/a, 7 DAA, 1 replicate) was 78%.
